Here are results for 13 compounds from patent publication US20120309087A1, “CANCER THERAPY” (University Court of The University of Dundee, priority 2006, published 2012).

In test [1] the test system is AKR1C and NQO1 protein in MCF7 cells. The experiment in a line: AKR1C and NQO1 protein in MCF7 cells (Western blots). The format is cell-based, human. As to conditions: sulforaphane 5 μM + retinoid 0.5 μM, 24 hrs. As for the experimental part: Method: AREc32 cells were seeded out in 96 well plates and treated with DMSO (control), tBHQ (50 μM), tBHQ+BTB09463 (5 μM) or tBHQ+Retinoic acid (1 μM). After 24 hours incubation, cells were washed and lysed before measuring luciferase activity. BTB09463 is 1-{4-[(3,4-dichlorobenzyl)oxy]phenyl}ethan-1-one. […] Method: AREc32 cells were seeded out in 96 well plates and dosed with BTB09463 (2.5, 5 or 10 μM) for 0, 24 or 48 hrs before treatment with tBHQ (50 μM). 24 hours after the addition of tBHQ, cells were washed and lysed before measuring luciferase activity. […] Method: ARE c32 cells were seeded out in 96 well plates and treated with DMSO (control), tBHQ (50 μM), tBHQ+retinoid (0.25, 0.5 and 1 μM). After 24 hours incubation, cells were washed and lysed before measuring luciferase activity. […] See FIG. 16 Method: A. Caco-2 cells were treated with the known ARE-gene inducer sulforaphane (5 μM), either alone or concomitantly with BTB09463 (5 μM) or Retinoic acid (1 μM). After 24 hrs, cell lysates were prepared and Western blotting performed to measure the levels of AKR1C protein. B. MCF7 cells were treated with sulforaphane (5 μM), either alone or concomitantly with BTB09463 (5 μM). After 24 hrs, cell lysates were prepared and Western blots performed to detect the levels of AKR1C and NQO1; GAPDH was used as a loading control in MCF7 cells. […] Method: Caco-2 cells were treated with DMSO (control), BTB09463 (5 μM), sulforaphane (5 μM) or a combination of sulforaphane plus BTB09463. After 24 hrs treatment, cells were harvested and RNA isolated. cDNA for each sample was generated by reverse transcription and subsequently used in real time PCR analysis of gene transcription (TaqMan analysis) for the ARE-driven genes AKR1C1 and NQO1. Data was normalised to the internal control 18S RNA and the relative levels of AKR1C1 and NQO1 calculated using the comparative CT method. […] Method: MCF7 cells were treated with the known ARE-gene inducer sulforaphane (5 μM), either alone or with various retinoids (0.5 μM). After 24 hrs, cell lysates were prepared and Western blots were performed to detect the levels of AKR1C protein present. […] See FIG. 19 Method: ARE reporter cell line AREc23 was seeded into 96 well plates and treated with a previously determined non-toxic concentration of cytotoxic drug. After 24 hours incubation, cells were washed and lysed before measuring luciferase activity. […] See FIG. 20a Method: ARE reporter cell line AREc23 was seeded into 96 well plates and treated with DMSO (control), Carmustine (100 μM), Carmustine+BTB09463 (5 μM) or Carmustine+Retinoic acid (5 μM) After 24 hours incubation, cells were washed and lysed before measuring luciferase activity. […] After 24 hours incubation, cells were washed and lysed before measuring luciferase activity. B. Modified repeat of experiment A, with cells being pretreated with L-buthionine-(SR)-sulfoximine (BSO), an inhibitor of enzymes in the glutathione synthesis pathway. After 24 hours incubation, cells were washed and lysed before measuring luciferase activity. […] Method: Caco-2 cells were treated for 24 hrs with DMSO (control), Carmustine (100 μM), Carmustine+BTB09463 (5 μM). After 24 hrs, cell lysates were prepared and Western blots to detect the levels of AKR1C. […] Method: MCF7 cells were treated for 24 hrs with DMSO (control; Lane 1), Sulforaphane (5 μM) (Lane 2), Carmustine (100 μM) (Lane 3), Carmustine+BTB09463 (5 μM) (Lane 5). (Lane 4 represents experimental conditions irrelevant to the application). After 24 hrs, cell lysates were prepared and Western blots to detect the levels of Nrf2, NQO1 and AKR1C proteins.

In test [2] the test system is AKR1C mRNA in AREc32 cells. The experiment in a line: AKR1C mRNA in AREc32 cells (TaqMan). Particulars: without pre-treatment with BSO; 24 h. On the technique in general: In qPCR the cycle at which signal appears reflects the starting amount.
Test [3] has as its system ARE-driven luciferase activity in AREc32 cells. The experiment in a line: Induction of ARE-driven luciferase activity in stable AREc32 reporter cells. Particulars: for effect on luciferase activity in AREc32 cells (in words): sub-lethal doses, no BSO; for Type of modulation: grouping of drugs by effect on luciferase activity; for CD, concentration of inducting agent that doubled luciferase reporter activity: DMSO set at 1. It counts as cell-based, human. A general note: Reporter assays use an easily measured gene product as a stand-in for the process of interest.

Take `CCC(=O)OC/C=C(C)/C=C/C=C(C)/C=C/C1=C(C)CCCC1(C)C` [vitamin A propionate]: the “sulforaphane-induced AKR1C protein” value in test [1] is on record as “reduced the expression of sulforaphane-induced AKR1C”.
As to `O=C(O)CCCc1ccc(N(CCCl)CCCl)cc1` [Chlorambucil], the “mRNA level of AKR1C (in words)” value in test [2] is “only slightly increased”. The “effect on luciferase activity in AREc32 cells (in words)” value (shortened to “effect on luciferase activity”) in test [3] (24 h) is recorded as “weak inducers”. In test [3] (AREc32, 24 h), the Type of modulation entry is listed as “Weak inducers”.
Consider `COc1cccc2c1C(=O)c1c(O)c3c(c(O)c1C2=O)C[C@@](O)(C(=O)CO)C[C@@H]3O[C@H]1C[C@H](N)[C@H](O)[C@H](C)O1` [Doxorubicin], for which, in test [3] (24 h), the “effect on luciferase activity” value is “no effect”. For the same compound, the Type of modulation entry in test [3] (AREc32, 24 h) is on record as “Inactive”.
On to `CC(=O)O[C@H]1C(=O)[C@@]2(C)[C@H]([C@H](OC(=O)c3ccccc3)[C@]3(O)C[C@H](OC(=O)[C@H](O)[C@@H](NC(=O)c4ccccc4)c4ccccc4)C(C)=C1C3(C)C)[C@]1(OC(C)=O)CO[C@@H]1C[C@@H]2O` [Paclitaxol], for which the “effect on luciferase activity” value in test [3] (24 h) is given as “no effect”. Besides, the Type of modulation result in test [3] (AREc32, 24 h) is reported as “Inactive”.
With `COc1ccc(O)c(C(C)(C)C)c1` [BHA], in test [3] (AREc32, 24 h), the “CD, concentration of inducting agent that doubled luciferase reporter activity” value turned out to be 20 µM.
In the case of `N.N.[Cl][Pt][Cl]` [Cisplatin], the “mRNA level of AKR1C (in words)” value in test [2] is recorded as “only slightly increased”. In test [3] (50 μM BSO 24 h, then 10 μM cisplatin, 20 μM melphalan, 100 μM BCNU or 100 μM chlorambucil 24 h), the “induction of luciferase activity after BSO pre-treatment” value is 3 fold. In addition, in test [3] (AREc32, 24 h), the Type of modulation result was “Weak inducers”.
In the case of `COc1cc([C@@H]2c3cc4c(cc3[C@@H](O[C@@H]3O[C@@H]5CO[C@@H](C)O[C@H]5[C@H](O)[C@H]3O)[C@H]3COC(=O)[C@H]23)OCO4)cc(OC)c1O` [Etopside, etoposide], in test [3] (50 μM BSO 24 h before drug, data not shown), the “effect of BSO pre-treatment on luciferase activity” value is given as “did not change luciferase activity significantly”. Also, in test [3] (24 h), the “effect on luciferase activity” value is recorded as “modestly increased”. The “Fold increase (luciferase activity relative to control value)” value in test [3] (AREc32, 24 h, concentration of each drug given in column Conc., mean ± S.D.) is on record as 1.3 ± 0.07. The Type of modulation entry in test [3] (AREc32, 24 h) is given as “Weak inducers”.
For `COS(C)(=O)=O` [MMS], the “CD, concentration of inducting agent that doubled luciferase reporter activity” value in test [3] (AREc32, 24 h) was 100 µM.
The same measure, in the same setting: for `CCOc1ccc2c(c1)C(C)=CC(C)(C)N2` [Ethoxyquin] the value was 5 µM; for `OCc1c[nH]c2ccccc12` [I3C], 20 µM; for `S=C(S)N1CCCC1` [PDTC], 20 µM.
As to `CN(Cc1cnc2nc(N)nc(N)c2n1)c1ccc(C(=O)N[C@@H](CCC(=O)O)C(=O)O)cc1` [Methotrexate], the “effect on luciferase activity” value in test [3] (24 h) is given as “no effect”. In test [3] (AREc32, 24 h), the Type of modulation entry is reported as “Inactive”.
For `S=P(N1CC1)(N1CC1)N1CC1` [Thiotepa] the same measures were “no effect” and “Inactive”.
